Experimental data from patent US11111500B2, “Mutated protoporphyrinogen IX oxidase (PPX) genes” (CIBUS US LLC, priority 2010, dated 2021).

Key:
[1] = tested on: leaf disc explants of in vitro grown potato plants; experiment: Leaf disk kill curve (callus formation in leaf disc explants); assay type: cell-based; conditions: solid Haberlach culture medium, 1% DMSO
Procedure: Aimed at establish the concentration of sulfentrazone that will inhibit callus formation in leaf disc explants, leaf discs were punched with a sterile hole punch from 5 weeks old in vitro grown potato plants. The leaf discs were cultured in petri dishes containing solid Haberlach culture medium containing various concentrations of Sulfentrazone in a final concentration of 1% DMSO. Six leaf discs cultured at each herbicide concentration. Plates were sealed with micropore tape and incubated at room temperature (approximately 23° C.). In an initial experiment, 7.8 μM sulfentrazone, the lowest concentration tested in that experiment, was sufficient to stop callus formations and bleach all leaf discs within 20 days. […] Similar leaf disc kill curve experiments were performed using saflufenacil where 0.5 μM of this herbicide was sufficient to inhibit callus formation in almost all leaf discs after 20 days.

[2] = tested on: potato plastidal PPX; experiment: Tolerance to saflufenacil of HemG mutant E. coli complemented with potato plastidal PPX (plate based selection, colony count); assay type: cell-based, Solanum tuberosum
From the text: StcPPX1, less its chloroplast transit peptide was cloned from cDNA into Cibus' proprietary functional screening vector. This vector may be used both for functional screening, and for GRON QC. The potato PPX genes were used to complement the HemG mutant strain of E. coli, which lacks a functional HemG gene, a bacterial homolog of PPX. Without a complementing gene, the media must be supplemented with hematin for E. coli growth.
In order to assess mutations that confer tolerance to PPX inhibitors such as Chateau (flumioxazin-Valent/Sumitomo), Naja (diphenylether—MAI) or Kixor (saflufenacil—BASF). Pure active ingredients for the PPX inhibiting herbicides Chateau (flumioxazin—Valent/Sumitomo), Spartan (sulfentrazone—FMC) and Kixor/Sharpen (saflufenacil—BASF) were obtained. […] This was further refined, and 0.75 mM sulfentrazone was also used to select for tolerance. […] All potato mitochondrial PPX genes and alleles were tested for natural tolerance to sulfentrazone and flumioxazin, but none were tolerant.
Tolerance of all possible amino acid substitutions at each position displaying tolerance to sulfentrazone or flumioxazin were tested. Next, single amino acid substitutions were combined in all permutations and combinations to assess complementation and herbicide tolerance.

`CC(C)N(C)S(=O)(=O)NC(=O)c1cc(-n2c(=O)cc(C(F)(F)F)n(C)c2=O)c(F)cc1Cl` [saflufenacil] was tested, and the “concentration sufficient to inhibit callus formation in almost all leaf discs after 20 days” value [1] was 0.5 µM and the “saflufenacil concentration with no growth of the wildtype construct” value [2] was 0.3 mM.
